Where two headings read alike, the source gives them in different places.
Target: T1, CIB1 and αIIb interaction (CIB1-GST : F-αIIb peptide) (Homo sapiens, UniProt Q99828)
T1 construct: made in house; host or cells: BL-21 plus RIL cells (E. coli)
T1 sequence (Q99828 1-191): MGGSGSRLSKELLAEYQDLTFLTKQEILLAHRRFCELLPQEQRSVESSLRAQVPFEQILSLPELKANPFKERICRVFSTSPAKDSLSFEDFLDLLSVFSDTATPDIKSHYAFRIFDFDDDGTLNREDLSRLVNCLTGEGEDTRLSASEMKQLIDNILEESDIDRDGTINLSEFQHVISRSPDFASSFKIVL
Experiment: FP assay, 1536-well qHTS format (primary and confirmatory screen)
Format: binding
Conditions: for Curve Class: negative sign = inhibitory curve; for IC50: read-out: IC50

[1] = qHTS primary screen of LOPAC/NPACT libraries, negative = inhibition
[2] = qHTS primary screen of LOPAC/NPACT libraries
[3] = qHTS FP screen hits, Table S2, negative = inhibition
[4] = qHTS primary screen hits, Table S2, negative = inhibition
[5] = qHTS primary screen hits, Table S2, several classes where COUNT > 1
[6] = qHTS primary screen hits, Table S2

N.N.N.N.N.N.N.N.N.N.N.N.N.N.O.O.[Ru].[Ru].[Ru] [NCGC00162333-02]
Efficacy (%) [1]: -26%
Curve Class [2]: -2.2
IC50 [2]: 56.2 µM

CCCCCCCCOc1ccccc1C(=O)Nc1ccc(C(=O)OCC[N+](C)(CC)CC)cc1.[Br-] [NCGC00163507-03]
Efficacy (%) [3]: -39%
Curve Class (qHTS FP screen hits, Table S2, one class per curve where COUNT > 1): -1.2
IC50 (qHTS FP screen hits, Table S2): 22.4 µM

CN(C)CC1CCn2c(c(C3=C(c4cn(C)c5ccccc45)C(=O)NC3=O)c3ccccc32)C1.Cl (centres unmarked) [NCGC00163696-04]
Efficacy (%) [1]: -28%
Curve Class [2]: -2.4
IC50 [2]: 56.2 µM

CS(=O)(=O)c1ccc(C(=O)C2C(=O)CCCC2=O)c([N+](=O)[O-])c1 [NCGC00163843-03]
Efficacy (%) [4]: -30%
Curve Class [5]: -2.4
IC50 [6]: 126 µM

CCCCCCCCCCCC[N+](C)(C)Cc1ccccc1.[Cl-] [NCGC00164245-03]
Efficacy (%) [4]: -38%
Curve Class [6]: -2.2
IC50 [6]: 50.1 µM

Cc1ccc(O)c2ncccc12 [NCGC00164506-02]
Efficacy (%) [4]: -50%
Curve Class [6]: -2.2
IC50 [6]: 44.7 µM

C[C@]12CC[C@@H]3c4ccc(OC(=O)N(CCCl)CCCl)cc4CC[C@H]3[C@@H]1CC[C@@H]2O [NCGC00164581-02]
Efficacy (%) [4]: -41%
Curve Class [5]: -2.2
IC50 [6]: 50.1 µM

CC(C)=CCC1C(=O)N(c2ccccc2)N(c2ccccc2)C1=O [NCGC00164582-02]
Efficacy (%) [4]: -28%
Curve Class [5]: -2.4
IC50 [6]: 50.1 µM

COc1cc(/C=C(\C#N)C(=O)Nc2nnc(C(F)(F)F)s2)ccc1OCc1ccc(C(F)(F)F)cc1C(F)(F)F [NCGC00165952-02]
Efficacy (%) [1]: -19%
Curve Class [2]: -1.4
IC50 [2]: 5.6 µM

OCCCc1ccccc1 [NCGC00165987-03]
Efficacy (%) [4]: -35%
Curve Class [5]: -2.2
IC50 [6]: 56.2 µM

O=C(O)c1ccccn1 [NCGC00165993-02]
Efficacy (%) [4]: -21%
Curve Class [6]: -2.4
IC50 [6]: 44.7 µM

CCCCCCCCCCCCCCCC[N+](C)(C)CC.[Br-] [NCGC00166120-02]
Efficacy (%) [4]: -45%
Curve Class [5]: -3
IC50 [6]: 89.1 µM

Cl.Nc1ccc2cc3ccc(N)cc3nc2c1.Nc1ccc2cc3ccc(N)cc3nc2c1.O=S(=O)(O)O [NCGC00166245-04]
Efficacy (%) [4]: -130%
Curve Class [5]: -1.1
IC50 [6]: 2.2 µM

CC[C@]1(O)CC[C@H]2[C@@H]3CCC4=CCCC[C@@H]4[C@H]3CC[C@@]21C [NCGC00167514-02]
Efficacy (%) [4]: -100%
Curve Class [5]: -1.1
IC50 [6]: 31.6 µM

COc1ccc2[nH]c([S+]([O-])Cc3ncc(C)c(OC)c3C)nc2n1 (centres unmarked) [NCGC00167521-02]
Efficacy (%) [3]: -34%
IC50 (qHTS FP screen hits, Table S2): 47.4 µM

Nc1ccncc1N [NCGC00167560-02]
Efficacy (%) [4]: -26%
Curve Class [5]: -2.4
IC50 [6]: 79.4 µM

CCN(CC)CCCN(c1ccccc1)C1Cc2ccccc2C1.Cl [NCGC00167576-02]
Efficacy (%) [4]: -57%
Curve Class [5]: -3
IC50 [6]: 89.1 µM

COc1cc(SC)ccc1C(=O)N1CCC(Cc2ccccc2)CC1 [NCGC00167816-02]
Efficacy (%) [1]: -11%
Curve Class [2]: -1.4
IC50 [2]: 3.2 µM

CN1CCN(c2ccc(Nc3c4ccccc4nc4ccccc34)cc2)CC1.O=C(O)C(F)(F)F [NCGC00167823-03]
Efficacy (%) [4]: -25%
Curve Class [5]: -2.4
IC50 [6]: 56.2 µM

COc1cccc2c1C(=O)c1c(O)c3c(c(O)c1C2=O)C[C@@](O)(C(=O)CO)C[C@@H]3O[C@H]1C[C@H](N)[C@H](O[C@@H]2CCCCO2)[C@H](C)O1 [NCGC00167982-02]
Efficacy (%) [4]: -42%
IC50 [6]: 7.7 µM

O=C(O)C1NCc2[nH]cnc2C1c1ccccc1 (centres unmarked) [NCGC00167998-01]
Efficacy (%) [4]: -28%
Curve Class [6]: -2.4
IC50 [6]: 50.1 µM

CCN(CC)C(=O)[C@@H]1C=C2c3cccc4[nH]cc(c34)C[C@H]2N(C)C1 [NCGC00168265-02]
Efficacy (%) [4]: -141%
Curve Class [6]: -1.1
IC50 [6]: 63.1 µM

C=C1C(=O)O[C@H]2C3=C(C)CCC[C@]3(C)C(=O)C[C@@H]12 [NCGC00168931-02]
Efficacy (%) [1]: -27%
Curve Class [2]: -2.4
IC50 [2]: 56.2 µM

O=C1OCc2cc3cccc(O[C@@H]4O[C@H](CO)[C@@H](O)[C@H](O)[C@H]4O)c3c(O)c21 [NCGC00169010-02]
Efficacy (%) [1]: -30%
Curve Class [2]: -2.4
IC50 [2]: 22.4 µM

CC(C)=CCc1ccc(Oc2c(O)cc(C)cc2CO)c(C(=O)O)c1O [NCGC00169025-02]
Efficacy (%) [1]: -26%
Curve Class [2]: -2.4
IC50 [2]: 44.7 µM

C=C1C(=O)O[C@H]2[C@H]1[C@@H](OC(=O)C(C)CO)C[C@@]1(C)[C@H](O)CCC(=O)[C@H]21 (some centres unmarked) [NCGC00169369-02]
Efficacy (%) [1]: -20%
Curve Class [2]: -1.4
IC50 [2]: 22.4 µM

C=CC/C=C\C/C=C\CCCCCCCc1cccc(O)c1C(=O)O [NCGC00169660-02]
Efficacy (%) [1]: -27%
Curve Class [2]: -1.4
IC50 [2]: 25.1 µM

CC1CCCC[C@H]2C(=O)C=C[C@H](O)[C@@H]2CC(=O)O1 (some centres unmarked) [NCGC00169882-02]
Efficacy (%) [4]: -82%
Curve Class [6]: -1.2
IC50 [6]: 28.2 µM

Cl.Cl.O=C(O)c1cn(-c2ccc(F)cc2)c2cc(N3CCNCC3)c(F)cc2c1=O [NCGC00177995-02]
Efficacy (%) [4]: -41%
Curve Class [5]: -3
IC50 [6]: 39.8 µM

O.O=C(O)[C@@H]1[C@H]2C[C@H]3c4[nH]c5ccccc5c4CCN3C[C@@H]2CC[C@@H]1O [NCGC00178432-05]
Efficacy (%) [4]: -32%
Curve Class [5]: -2.4
IC50 [6]: 44.7 µM

C[n+]1c2cc(N)ccc2cc2ccc(N)cc21 [NCGC00178831-03]
Efficacy (%) [4]: -101%
Curve Class [6]: -1.3
IC50 [6]: 1.1 µM

C=C1c2cccc(O)c2C(O)=C2C(=O)[C@]3(O)C(O)=C(C(N)=O)C(=O)[C@@H](N(C)C)[C@@H]3[C@@H](O)[C@H]12.Cl [NCGC00179358-04]
Efficacy (%) [4]: -53%
Curve Class [5]: -2.4
IC50 [6]: 56.2 µM

CC(C)NC[C@@H](O)c1ccc(O)c(O)c1 [NCGC00179436-02]
Efficacy (%) [1]: -24%
Curve Class [2]: -2.2
IC50 [2]: 50.1 µM

O=C(N/N=C/c1ccc([N+](=O)[O-])o1)c1ccc(O)cc1 [NCGC00179496-04]
IC50 [6]: 44.7 µM

CCN(CC)C(=O)N[C@@H]1C=C2c3cccc4[nH]cc(c34)C[C@@H]2N(C)C1 [NCGC00179663-03]
Efficacy (%) [4]: -60%
Curve Class [5]: -2.4
IC50 [6]: 50.1 µM

C=C1C(=O)O[C@@H]2[C@H]1[C@H](O)C[C@]1(C)[C@@H](O)CC=C(C)[C@@H]21 [NCGC00180848-02]
Efficacy (%) [1]: -29%
Curve Class [2]: -2.4
IC50 [2]: 20 µM

CCCC(=O)OC[C@@H](OC(=O)CCC)[C@@H](OC(=O)CCC)[C@H](Cn1c2nc(=O)[nH]c(=O)c-2nc2cc(C)c(C)cc21)OC(=O)CCC [NCGC00181300-01]
Efficacy (%) [4]: -140%
Curve Class [5]: -1.1
IC50 [6]: 2.8 µM

CN(C)c1ccc(-c2ccnc(O)c2N)cc1 [NCGC00181386-01]
Efficacy (%) [4]: -24%
Curve Class [5]: -2.4
IC50 [6]: 79.4 µM

CO/N=C(/C(=O)N[C@@H]1C(=O)N2C(C(=O)[O-])=C(C[n+]3ccn4ncccc43)CS[C@H]12)c1nsc(N)n1 [NCGC00181750-01]
Efficacy (%) [4]: -60%
Curve Class [5]: -2.4
IC50 [6]: 56.2 µM

O=C(CN1C(=O)N/C(=C\c2cn(-c3cccc(C(=O)O)c3)cn2)C1=O)Nc1ccc(Cl)cc1 [NCGC00182401-01]
Efficacy (%) [4]: -30%
Curve Class [5]: -2.4
IC50 [6]: 44.7 µM

CCC(=O)NC(c1cccs1)c1ccc2cccnc2c1O (centres unmarked) [NCGC00182903-03]
Efficacy (%) [4]: -26%
Curve Class [6]: -2.4
IC50 [6]: 50.1 µM

c1ccc(C2Nc3cccc4cccc(c34)N2)cc1 [NCGC00182927-03]
Efficacy (%): -29%
Curve Class [6]: -2.4
IC50 [6]: 50.1 µM

Oc1cccc(C2=C3C=CC(=N3)C(c3cccc(O)c3)=C3C=CC(=N3)C(c3cccc(O)c3)=C3CCC(=N3)C(c3cccc(O)c3)=C3C=CC2=N3)c1 [NCGC00183015-01]
Efficacy (%) [4]: -29%
Curve Class [5]: -2.4
IC50 [6]: 50.1 µM

CO/N=C(\C(=O)N[C@@H]1C(=O)N2C(C(=O)O)=C(Cn3nnc(C)n3)CS[C@H]12)c1csc(N)n1 [NCGC00183016-01]
Efficacy (%) [4]: -171%
Curve Class [6]: -3
IC50 [6]: 89.1 µM

Cl.Oc1ccc([C@H]2CNCc3c2ccc(O)c3O)cc1O [NCGC00183049-01]
Efficacy (%) [4]: -93%
Curve Class [6]: -3
IC50 [6]: 89.1 µM

Cc1c(C)c2c(c(C)c1OC(=O)CCC(=O)OCCO)CC[C@@](C)(CCC[C@H](C)CCC[C@H](C)CCCC(C)C)O2 [NCGC00183103-01]
Efficacy (%) [4]: -36%
Curve Class [5]: -3
IC50 [6]: 79.4 µM

O=C(O)C(F)(F)F.OCc1cn(Cc2ccc(O)c3ncccc23)cn1 [NCGC00183377-01]
Efficacy (%) [4]: -33%
Curve Class [5]: -2.2
IC50 [6]: 44.7 µM

O=C(O)C(F)(F)F.O=C1c2ccccc2NC(c2ccc(-c3cccc([N+](=O)[O-])c3)o2)N1O (centres unmarked) [NCGC00183384-01]
Efficacy (%) [4]: -23%
Curve Class [5]: -2.4
IC50 [6]: 56.2 µM

O=C(O)C(F)(F)F.O=C1c2ccccc2NC(c2ccc(-c3ccc(C(F)(F)F)cc3)o2)N1O (centres unmarked) [NCGC00183389-01]
Efficacy (%) [4]: -24%
Curve Class [6]: -2.4
IC50 [6]: 56.2 µM

Source: paper PMC11249646, “Small-Molecule Disruptors of the Interaction between Calcium- and Integrin-Binding Protein 1 and Integrin αIIbβ3 as Novel Antiplatelet Agents” (ACS Pharmacology & Translational Science, 2024)
